From patent publication US20150030583A1, “Methods of Treating Serosal Cancer” (SLOAN KETTERING INSTITUTE FOR CANCER RESEARCH, priority 2011, published 2015) come the findings set out here.

Data set [1] concerns catena cells. In words: Morphological observation of treated catenae under the microscope. In kind it is cell-based.
Data set [2] deals with Ovcar3 monolayer (epithelial) cells. In words: Ovarian cancer monolayer drug sensitivity (alamarBlue), Ovcar3. The data set is classed as cell-based. Particulars: Homo sapiens. Here is the method:
(§1) The foregoing total of 29 compounds were tested in parallel on ovarian cancer monolayer cells by seeding 100 Ovcar3 monolayer (epithelial) or 25 Ovcar5 monolayer (mesenchymal) cells in 384-well plates. Drugs were added 4 days after cell seeding and cell viability was analyzed by alamarBlue staining. In general, catena cells with an established glycocalyx were on average 4-8 fold more resistant to these compounds when compared to monolayers. […]
A general note: Resazurin is reduced to fluorescent resorufin, in cell work by metabolically active cells.

The subject of data set [3] is Ovcar5 monolayer (mesenchymal) cells. In words: Ovarian cancer monolayer drug sensitivity (alamarBlue), Ovcar5. In kind it is cell-based. Particulars: Homo sapiens. Here is the method:
as §1

Another data set relates to Ovcar3-GTL catenae. In words: Ovcar3-GTL catena drug sensitivity / proliferation screen (alamarBlue, 384-well).
Data set [4] relates to catena cells. Description: Combination drug screening: paclitaxel after PEGylated enzyme treatment. The data set is classed as cell-based. Here is the method: Twenty-five […] seeded into 384-well plates. After 5 days, cells were treated with either PEGylated hyaluronidase, PEGylated collagenase or both for 10 minutes at 37° C. Without removing the enzymes, paclitaxel was added over a series of dilutions, followed by alamarBlue addition on day 9 with absorbance measured two days later.

Data set [5] has as its system glycocalyx surrounding a catena. Description: Particle exclusion experiment with red blood cells. The data set is classed as cell-based. Conditions: brief incubation with enzyme, RBCs overnight. Here is the method: To visualize the glycocalyx surrounding a catena, a particle exclusion experiment was conducted using red blood cells (RBCs). Catenae were mechanically dissociated by pipetting or by brief incubation with hyaluronidase as before. RBCs from human peripheral blood were added and the mixture was incubated overnight in culture media. The cells were observed under the light microscope for the presence of a glycocalyx separating catena cells from the RBCs.

Data set [6] in a line: Viscosity of catena culture supernatant after enzyme treatment. Conditions: a few drops 10 mg/mL enzyme. Here is the method: In contrast, Ovcar3-GTL epithelial cells were 98% positive for CA125 by FACS and secreted 800 units/ml of CA125 into culture media. For the ELISA, cell supernatants were collected by spinning the cultures at 300×g for 5 min to remove cells and assayed by CA125 ELISA using an automated instrument, ADVIA Centaur XP Immunoassay System (Siemens Healthcare Diagnostics Inc.).
Hyaluronan is a glycosaminoglycan found in extracellular matrix and functions to provide microenvironmental cues in a number of biological processes, including tumor development [Toole, 2004]. Supernatants prepared as above were treated with a few drops 10 mg/mL hyaluronidase (Sigma) in deionized water.

Data set [7] relates to catena cells. Description: Growth of catena cells upon disruption of the glycocalyx. In kind it is cell-based. Here is the method: To investigate the how catena cells grow upon disruption of the glycocalyx, catenae were dissociated to single cells with hyaluronidase treatment and plated in tissue culture treated flasks with or without 10% hyaluronidase enzyme solution (10 mg/ml) to prevent the formation of glycocalyx. In parallel, catenae were dissociated mechanically and plated in the absence of hyaluronidase.

Data set [8] relates to low molecular weight complex of collagen and hyaluronan. Description: Western blot (anti-COL1A2) of catena culture supernatant. In kind it is biochemical. An excerpt: The glycocalyx of the catena has two major components, i.e., hyaluronan and collagen, which interact and form a stable complex. […] Briefly, the supernatant fraction of catena cell cultures was separated from the cells by centrifugation. The supernatant was run in an SDS-PAGE gel and blotted with the anti-COL1A2 antibody. This complex was sensitive to hyaluronidase treatment but was not affected by collagenase type 1, 2 or 4 treatment. This hyaluronan-collagen complex could be important for the formation of catena glycocalyx and drug resistance or metastatic potential conferred to catena cells by the glycocalyx.

Data set [9] relates to catena cells. In words: In vitro clonogenicity assay of catena cells. Conditions: enzyme included in the clonogenic assay; attached cells. The data set is classed as cell-based. An excerpt: Catena cells were dissociated with hyaluronidase, allowed to attach to tissue culture plates and grown in the presence hyaluronidase for 7 days. Under these conditions, cells remained attached to tissue culture plates. The cells were harvested and subjected to an in vitro clonogenicity assay in the presence and absence of hyaluronidase. In parallel, mechanically-dissociated catena were subjected to the in vitro clonogenicity assay in the presence and absence of hyaluronidase.

Read-outs that look alike come from different tables or passages of the source.

Experimental for Ovcar3-GTL catenae: Cells were resuspended in M5-FCS to produce homogenous cultures of single cells which were seeded in 50 μL aliquots per well at the indicated cell densities and grown for the indicated times before addition of test compounds or other reagents.
For these experiments, 25 Ovcar3-GTL catena or 250 Ovcar3-GTL catena cells were seeded per well as described above. […] Five days after adding the test compound, alamarBlue® was added to the cultures and culture absorbance was measured 48 hours later.
The assays were conducted on catena cells with or without a glycocalyx coat and the IC50 values were determined.
Each compound was tested against three cellular entities (catena cells with or without the coat and established tumor spheroids) at 5 μM, 0.2 μM and 0.008 μM of compounds (with replicates).

In general, IC50 refers to the concentration at which inhibition is half-maximal. Consider `CC(=O)O[C@H]1C(=O)[C@@]2(C)[C@H]([C@H](OC(=O)c3ccccc3)[C@]3(O)C[C@H](OC(=O)[C@H](O)[C@@H](NC(=O)c4ccccc4)c4ccccc4)C(C)=C1C3(C)C)[C@]1(OC(C)=O)CO[C@@H]1C[C@@H]2O` [paclitaxel], for which, in the data set with catena cells [1] (100 μM (rapamycin 25 μM, lovastatin acid 50 μM), cells re-entered the cell cycle without drug), the “cells seen in cultures treated with high concentrations of compounds” value is “live, large single cells, i.e., cells arrested at mitosis”. Besides, the half-inhibitory concentration (IC50) is 0.025 µM in data set [2] (OVCAR-3, 96 h, 100 cells seeded, drugs added 4 days after seeding, read-out: IC50 (μM) Ovcar3 monolayer); at most 0.05 µM in [2] (OVCAR-3, subnanomolar to no more than 50 nM, read-out: IC50 Ovcar3 monolayer cells); 0.025 µM in data set [3] (OVCAR-5, 96 h, 25 cells seeded, drugs added 4 days after seeding, read-out: IC50 (μM) Ovcar5 monolayer); at most 0.05 µM in data set [3] (OVCAR-5, subnanomolar to no more than 50 nM, read-out: IC50 Ovcar5 monolayer cells); at most 0.012 nM in the data set on Ovcar3-GTL catenae (24 h, read-out: IC50 (μM) Addition on Day 1, Ovcar3-GTL catenae, compound added one day after seeding (cells predominantly lacking a glycocalyx)); above 100000 nM with Ovcar3-GTL catenae (144 h, read-out: IC50 (μM) Addition on Day 6, Ovcar3-GTL catenae, compound added six days after seeding (established or substantial glycocalyx)). In the data set on Ovcar3-GTL catenae (Homo sapiens, OVCAR-3, read-out: IC50 (μM) Ovcar3 catena, catena cells with an established glycocalyx (Table D)), the IC50 was above 100000 nM. In addition, the “Increased Resistance of catena” value with Ovcar3-GTL catenae (catena with established glycocalyx versus monolayers) is on record as 4,000 fold. Moreover, the “decrease of paclitaxel IC50 after PEGylated hyaluronidase” value in the data set with catena cells [4] (enzyme 10 min at 37° C. on day 5 before paclitaxel) was determined as 2.5 fold. The “decrease of paclitaxel IC50 after combination of PEGylated hyaluronidase and PEGylated collagenase” value in the data set with catena cells [4] (enzymes 10 min at 37° C. on day 5 before paclitaxel) amounted to 16 fold.

For the compound hyaluronidase, the “morphological change of treated catenae” value in the data set with catena cells [1] (microscope observation, listed as non-PEGylated hyaluronidase) was “caused aggregation of catena cells”. Moreover, the “glycocalyx coat in RBC particle exclusion” value in [5] is reported as “completely lacked a glycocalyx”. In data set [6], the “viscosity of culture supernatant” value is given as “rapidly reduced the viscosity”. The “growth of catena cells, continuous enzyme treatment” value in the data set with catena cells [7] (10% enzyme solution (10 mg/ml) in culture) was “attached to tissue culture plates and formed epithelial and mesenchymal monolayers”. The “growth of catena cells, brief enzyme treatment, plated without enzyme” value with catena cells [7] (dissociated to single cells with enzyme) is given as “no longer formed free floating chains but rather proliferated as irregular aggregates in suspension”. Also, the “effect on hyaluronan-collagen complex (less than 20 kDa)” value in [8] was “sensitive”. Further, the “colony size in clonogenic assay” value with catena cells [9] was “further reduced”.
